Structures are written as SMILES. Residue numbers refer to the chain shown, from its start.

What all share (format): biochemical
The target in test [1] is Zea mays EPSPS variant 4N (Zea mays, UniProt O24566, A3N). Briefly: EPSPS reaction rate with or without 10 uM glyphosate, 4N. Also: 50 µM PEP and S3P. The note with it: pH 7; read-out: Reaction rate with 10 μM glyph, % no glyph.
The target in test [2] is T1, Zea mays EPSPS variant Zm-H6 (868-H6) (Zea mays, UniProt O24566, A1R/A3W/A415G/A71Q/D401G/E301S/E390G/G101A/I207L/K83R/L97C/T278A/T360S/T440Q/V437R).
T1 sequence (O24566 with tags, fused parts or gaps A1R/A3W/A71Q/K83R/L97C/G101A/I207L/T278A/E301S/T360S/E390G/D401G/A415G/V437R/T440Q): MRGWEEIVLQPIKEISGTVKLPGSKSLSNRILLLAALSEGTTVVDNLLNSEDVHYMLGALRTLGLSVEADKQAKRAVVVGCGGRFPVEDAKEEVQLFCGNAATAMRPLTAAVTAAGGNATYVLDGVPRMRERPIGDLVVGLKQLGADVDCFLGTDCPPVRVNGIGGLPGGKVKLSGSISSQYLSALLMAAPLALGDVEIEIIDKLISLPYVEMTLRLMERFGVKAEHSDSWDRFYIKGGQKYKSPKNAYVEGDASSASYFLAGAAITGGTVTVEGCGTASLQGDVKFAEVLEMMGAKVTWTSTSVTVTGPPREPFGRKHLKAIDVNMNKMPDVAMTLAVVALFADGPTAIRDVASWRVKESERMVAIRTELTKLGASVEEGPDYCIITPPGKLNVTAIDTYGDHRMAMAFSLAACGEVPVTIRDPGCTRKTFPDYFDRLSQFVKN
The test is described as follows: Substrate saturation analysis with glyphosate (Example 8), Zm-H6. An excerpt: Generally, (kcat/KM)*KI is obtained by performing substrate saturation analysis in the absence and presence of inhibitor. However, that analysis takes longer. […] To validate the method, (kcat/KM)*KI was quantified using both methods—traditional (saturation) and the instant method (rapid), for variants of maize 5-enolpyruvylshikimate-3-phosphate synthase (EPSPS) and its competitive inhibitor, glyphosate.
The amino acid sequence of mature Zea mays EPSPS was obtained from GenBank entry CAA44974.1 (SEQ ID NO:2). A nucleotide sequence was created to add an N-terminal methionine and to optimize codon usage for expression in E. coli. The synthesized gene was cloned into an expression vector that provides a T7 promoter driving expression of the protein and a 10× N-terminal histidine tag. Variants selected for this study include native maize EPSPS and variants generated by a gene shuffling cascade described herein. […] Protein concentration was determined by absorbance at 280 nm using an extinction coefficient of 0.676 OD/mg/m L. The proteins were normalized to 0.5 mg/mL for assay.
EPSPS activity was determined by quantifying the phosphate generated by the reaction. […] The absorbance change that occurs was monitored continuously at 360 nm, where the extinction is 11,200 M-1 cm-1, with a Spectramax plate reader (Molecular Devices). […]

Test [3] concerns the target T2, Zea mays EPSPS variant Zm-P107S (Zea mays, UniProt O24566, P106S).
T2 construct: native maize plus P107S; E. coli BL21(DE3), Ni-NTA purified
T2 sequence (O24566 with tags, fused parts or gaps P106S): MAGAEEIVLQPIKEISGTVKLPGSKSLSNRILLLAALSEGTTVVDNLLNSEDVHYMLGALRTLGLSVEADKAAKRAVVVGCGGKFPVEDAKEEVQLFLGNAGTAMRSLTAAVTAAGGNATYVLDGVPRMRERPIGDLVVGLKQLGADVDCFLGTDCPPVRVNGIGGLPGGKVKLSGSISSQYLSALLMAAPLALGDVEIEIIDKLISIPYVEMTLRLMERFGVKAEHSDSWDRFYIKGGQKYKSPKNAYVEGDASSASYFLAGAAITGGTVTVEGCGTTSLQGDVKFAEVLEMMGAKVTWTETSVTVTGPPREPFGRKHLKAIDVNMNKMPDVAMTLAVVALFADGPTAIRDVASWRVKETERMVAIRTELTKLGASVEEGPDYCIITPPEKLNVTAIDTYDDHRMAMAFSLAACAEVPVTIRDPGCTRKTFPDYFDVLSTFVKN
The test is described as follows: Substrate saturation kinetic analysis with glyphosate, Zm-P107S.

Test [4] concerns the target T3, Zea mays EPSPS variant Zm-H6 (868-H6) with A36G (H6-A36G) (Zea mays, UniProt O24566, A1R/A35G/A3W/A415G/A71Q/D401G/E301S/E390G/G101A/I207L/K83R/L97C/T278A/T360S/T440Q/V437R).
T3 sequence (O24566 with tags, fused parts or gaps A1R/A3W/A35G/A71Q/K83R/L97C/G101A/I207L/T278A/E301S/T360S/E390G/D401G/A415G/V437R/T440Q): T1 sequence (O24566 with tags, fused parts or gaps A1R/A3W/A71Q/K83R/L97C/G101A/I207L/T278A/E301S/T360S/E390G/D401G/A415G/V437R/T440Q) with A36G
Briefly: Substrate saturation kinetic analysis with glyphosate, H6-A36G.

Zea mays EPSPS variant 4N, sequence (O24566 entry or part of it A3N): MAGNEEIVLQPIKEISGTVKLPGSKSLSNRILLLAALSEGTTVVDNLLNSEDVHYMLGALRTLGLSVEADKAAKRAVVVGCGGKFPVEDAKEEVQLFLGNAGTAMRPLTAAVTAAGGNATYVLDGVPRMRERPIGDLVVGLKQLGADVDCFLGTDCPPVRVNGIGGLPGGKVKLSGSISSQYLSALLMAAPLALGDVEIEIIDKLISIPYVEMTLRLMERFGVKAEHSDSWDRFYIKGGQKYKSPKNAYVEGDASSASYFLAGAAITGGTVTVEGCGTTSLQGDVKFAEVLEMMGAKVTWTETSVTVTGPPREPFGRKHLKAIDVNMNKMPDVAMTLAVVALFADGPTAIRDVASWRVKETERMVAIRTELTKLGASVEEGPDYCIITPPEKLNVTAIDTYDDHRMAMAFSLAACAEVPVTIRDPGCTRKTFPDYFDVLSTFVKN

One may read the Ki as a measure of affinity in units of concentration, obtained from inhibition or displacement. On to `O=C(O)CNCP(=O)(O)O` [glyphosate, N-phosphonomethylglycine], for which, in test [1], the activity at 10 µM was 7.56%. Further, the results for the Ki in test [2], in test [3] and in test [4] were 381 µM, 0.42 µM and 454 µM, respectively. The “(kcat/KM)*KI” value is on record as 3660 in test [2] (substrate saturation, Zm-H6); 51 in test [3] (substrate saturation, Zm-P107S); 3630 in test [4] (substrate saturation, H6-A36G).

(Values after patent US11549123B2, “Plant EPSP synthases and methods of use” (PIONEER HI-BRED INTERNATIONAL, INC., priority 2015, dated 2023).)
